This note sets out measurements from article PMC4589873, “A pain-inducing centipede toxin targets the heat activation machinery of nociceptor TRPV1” (Nature Communications, 2015).

One assay deals with T1, mTRPV1 (Mus musculus, UniProt Q704Y3).
T1 construct: expressed in transfected cells; host or cells: HEK-293T
The assay is described as follows: Whole-cell patch-clamp of mTRPV1 expressed in HEK293 cells. In kind it is cell-based. The conditions noted are these: SEM. The text has this: TRPV1 and TRPV3 chimeras used in this study were generated by the overlapping extension method[54] and confirmed by DNA sequencing, as described previously. Briefly, to generate V1/3S, the primer pairs (5′-[…]-3′and 5′-[…]-3′) were used. To generate other TRPV1/TRPV3 chimeras, the enzyme cutting sites by MluI were made by the primer pair (5′-[…]-3′ and 5′-[…]-3′) for TRPV1 and the primer pair (5′-[…]-3′ and 5′-[…]-3′) for TRPV3. The enzyme cutting sites by PvuI were made by the primer pair (5′-[…]-3′ and 5′-[…]-3′) for TRPV1 and the primer pair (5′-[…]-3′ and 5′-[…]-3′) for TRPV3. The enzyme cutting sites by BsiWI were made by the primer pair (5′-[…]-3′ and 5′-[…]-3′) for TRPV1 and the primer pair (5′-[…]-3′ and 5′-[…]-3′) for TRPV3. V1/3M were generated by enzyme cut and paste between MluI and PvuI sites, while V1/3L were generated by enzyme cut and paste between MluI and BsiWI sites. V1_S1S2_1, V1_S1S2_3 and V1_S1S2_3 were generated as previously reported. All mTRPV1 point mutations were constructed using the QuickChange II XL site-directed mutagenesis kit following the manufacturer’s instruction. These point mutations were sequenced to confirm that appropriate constructs were made. HEK-293T cells were cultured and transiently transfected using Lipofectamine 2,000 (Invitrogen) as previously described.
(§1) As described in details in a previous report, macroscopic currents (in whole-cell, inside-out or outside-out configuration) as well as single-channel currents were recorded using a HEKA EPC10 amplifier with the PatchMaster software (HEKA). Both pipette solution and bath solution contained 130 mM NaCl, 3 mM HEPES and 0.2 mM EDTA (pH 7.2). All recordings were performed at room temperature unless otherwise stated. A holding potential of 0 mV was used from which a testing pulse to +80 mV was applied. Statistical difference was determined using the Student’s t-test, and indicated by ** when reaching the significance level P<0.001.

The subject of a further assay is Trpv1−/− knockout mice. The assay is described as follows: Paw-licking assay in TRPV1 knockout mice. The conditions noted are these: intraplantar, 1 μmol per paw. The format is in vivo, mouse. As to the method: In vivo effects of RhTx on WT mice or Trpv1^−/− mice were examined according to protocols described previously. For the paw-licking assay, pain was induced in mice by intraplantar injection of 0.1% formalin, capsaicin (1 μmol per paw) or RhTx (1 μmol per paw). Each of the testing materials was dissolved in 100 μl saline. Control mice received the same volume of saline. Injected mice were placed individually into open polyvinyl cages (20 × 40 × 15 cm). Time spent licking the injected paw was recorded by a digital video camera during the following 40 min. For recording colonic temperature from WT or Trpv1^−/− mice, mice equipped with a copper-constantan thermocouple were individually placed in open polyvinyl cages. A data logger was connected to the thermocouple. Mice were injected intraperitoneally with 100 μl saline containing capsaicin or RhTx. The dose of capsaicin or RhTx was 10 μmol kg^−1 for these experiments. Mice in the control group received the same volume of saline.

For the next assay, the system named is TRPV1. Briefly: Cooling of RhTx- or capsaicin-induced channel activation. In kind it is cell-based. The conditions noted are these: RhTx at 1 μM. As to the method:
as §1

Assay [1] deals with mTRPV1 point mutants at D602, Y632, T634 and L461. The assay is described as follows: Calcium imaging of mTRPV1 point mutants. In kind it is cell-based, mouse. The note with it: glycine or alanine mutation; 10 μM RhTx, 10 μM capsaicin. The text has this:
TRPV1 and TRPV3 chimeras used in this study were generated by the overlapping extension method[54] and confirmed by DNA sequencing, as described previously. Briefly, to generate V1/3S, the primer pairs (5′-[…]-3′and 5′-[…]-3′) were used. To generate other TRPV1/TRPV3 chimeras, the enzyme cutting sites by MluI were made by the primer pair (5′-[…]-3′ and 5′-[…]-3′) for TRPV1 and the primer pair (5′-[…]-3′ and 5′-[…]-3′) for TRPV3. The enzyme cutting sites by PvuI were made by the primer pair (5′-[…]-3′ and 5′-[…]-3′) for TRPV1 and the primer pair (5′-[…]-3′ and 5′-[…]-3′) for TRPV3. The enzyme cutting sites by BsiWI were made by the primer pair (5′-[…]-3′ and 5′-[…]-3′) for TRPV1 and the primer pair (5′-[…]-3′ and 5′-[…]-3′) for TRPV3. […]
Mouse DRG neurons were acutely dissociated and maintained in a short-term primary culture according to procedures as previous descripted. […] Fluorescence images of DRG neurons and HEK-293T cells were acquired with an Olympus IX81 microscope with Hamamatsu C4742 charge-coupled device camera controlled by the MetaFluor Software (Molecular Devices). Fluo-4 was excited by a mercury vapour light source with a 500/20-nm excitation filter, while fluorescence emission was detected with a 535/30-nm emission filter. Fluorescence images were required with automated routines written in MetaMorph software (Molecular Devices) and analysed with Igor Pro (Wavemetrics).

Assay [2] has the same test system. Briefly: Whole-cell current of mTRPV1 point mutants. In kind it is cell-based, mouse. The note with it: glycine or alanine mutation, both at 10 μM, +80 mV. The source says:
TRPV1 and TRPV3 chimeras used in this study were generated by the overlapping extension method[54] and confirmed by DNA sequencing, as described previously. Briefly, to generate V1/3S, the primer pairs (5′-[…]-3′and 5′-[…]-3′) were used. To generate other TRPV1/TRPV3 chimeras, the enzyme cutting sites by MluI were made by the primer pair (5′-[…]-3′ and 5′-[…]-3′) for TRPV1 and the primer pair (5′-[…]-3′ and 5′-[…]-3′) for TRPV3. The enzyme cutting sites by PvuI were made by the primer pair (5′-[…]-3′ and 5′-[…]-3′) for TRPV1 and the primer pair (5′-[…]-3′ and 5′-[…]-3′) for TRPV3. The enzyme cutting sites by BsiWI were made by the primer pair (5′-[…]-3′ and 5′-[…]-3′) for TRPV1 and the primer pair (5′-[…]-3′ and 5′-[…]-3′) for TRPV3. V1/3M were generated by enzyme cut and paste between MluI and PvuI sites, while V1/3L were generated by enzyme cut and paste between MluI and BsiWI sites. V1_S1S2_1, V1_S1S2_3 and V1_S1S2_3 were generated as previously reported. […]
As described in details in a previous report, macroscopic currents (in whole-cell, inside-out or outside-out configuration) as well as single-channel currents were recorded using a HEKA EPC10 amplifier with the PatchMaster software (HEKA). […] Statistical difference was determined using the Student’s t-test, and indicated by ** when reaching the significance level P<0.001.

T1 sequence (Q704Y3 whole entry): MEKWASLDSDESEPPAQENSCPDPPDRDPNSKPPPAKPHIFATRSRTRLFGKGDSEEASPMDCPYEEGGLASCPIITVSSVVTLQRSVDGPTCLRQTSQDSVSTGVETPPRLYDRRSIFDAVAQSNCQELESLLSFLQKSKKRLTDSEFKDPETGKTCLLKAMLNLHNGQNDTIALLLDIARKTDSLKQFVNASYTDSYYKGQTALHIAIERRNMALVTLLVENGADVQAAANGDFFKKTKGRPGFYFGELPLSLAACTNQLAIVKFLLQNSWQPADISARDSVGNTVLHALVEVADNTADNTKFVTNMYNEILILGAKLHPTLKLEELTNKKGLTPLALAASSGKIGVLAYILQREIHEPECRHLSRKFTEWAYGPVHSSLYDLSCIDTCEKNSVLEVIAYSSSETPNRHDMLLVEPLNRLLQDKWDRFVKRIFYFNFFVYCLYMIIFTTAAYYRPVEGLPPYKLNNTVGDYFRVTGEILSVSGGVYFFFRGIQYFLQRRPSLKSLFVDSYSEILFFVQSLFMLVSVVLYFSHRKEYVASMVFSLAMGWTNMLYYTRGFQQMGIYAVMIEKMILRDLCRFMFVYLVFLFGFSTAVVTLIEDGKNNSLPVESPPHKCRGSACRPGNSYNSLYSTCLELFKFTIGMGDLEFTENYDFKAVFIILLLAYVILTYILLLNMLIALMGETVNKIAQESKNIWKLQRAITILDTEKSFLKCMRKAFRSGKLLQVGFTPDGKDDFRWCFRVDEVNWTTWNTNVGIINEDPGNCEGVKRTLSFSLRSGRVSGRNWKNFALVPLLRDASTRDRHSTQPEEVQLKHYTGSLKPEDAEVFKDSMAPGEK

`COc1cc(CNC(=O)CCCC/C=C/C(C)C)ccc1O` [capsaicin, reference compound]: at mTRPV1, it took 214 ± 20.6 nM to reach a half-maximal effect (EC50) and the Hill slope is 1.36±0.18. Further, the “pain behaviour (paw licking) in knockout mice” value in the assay on Trpv1−/− knockout mice was “ineffective”. In addition, the “effect of lowering the experimental temperature on agonist-induced channel activation” value in the assay on TRPV1 is “could not prevent”. For the same compound, the “agonist-induced intracellular calcium increase in point mutants versus WT channel” value in assay [1] is listed as “sparing”. Further, in assay [2], the “agonist-induced current in point mutants versus WT channel” value was “sparing”.
